In US11814367B2, “Inhibitors of glycogen synthase 1 (GYS1) and methods of use thereof” (Maze Therapeutics, Inc., priority 2021, dated 2023):

What was measured:
[1] = target: hGYS1 enzyme (recombinant hGYS1/GN1 protein) (Homo sapiens (Human), UniProt P13807); experiment: GYS1 coupled enzyme assay (PK/LDH); type: biochemical; conditions: hGYS1/GN1 50 nM, UDP-Glucose 0.8 mM, G6P 1 mM; geometric mean of at least 2 runs
[2] = target: hGYS2 enzyme (recombinant hGYS2/GN1 protein) (Homo sapiens (Human), UniProt P54840); experiment: GYS2 coupled enzyme assay (PK/LDH); type: biochemical; conditions: geometric mean of at least 2 assay runs on separate days, read-out: Avg_IC50
How it was run: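 Recombinant hGYS2/GN1 (200 nM) with 2 mM UDP-glucose, 0.2% rabbit liver glycogen, 2 mM glucose-6-phosphate; UDP coupled via PK/LDH (2 mM PEP, 0.6 mM NADH). Buffer 50 mM Tris pH 7.5, 2 mM MgCl2, 100 mM KCl, 2.5% DMSO. A340 slope over 10 min; IC50 from Hill fit of duplicates.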

[3] = system: hGYS1 enzyme / glycogen synthesis in HeLa cells; experiment: GYS1 cell based assay (glycogen synthesis, Glucose-glo); parameters: species or system human; conditions: Homo sapiens, HeLa, 24 h, 24 h incubation, 20 mM glucose, geometric mean of at least 2 runs
How it was run: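 HeLa cells starved 24 h in medium containing only 1× Glutamax were plated onto compound in medium with 20 mM glucose (1% DMSO final) for 24 h, 37 °C, 5% CO2. Acid lysates were Tris-quenched, glucoamylase-digested (pH 5.3, 1 h, 37 °C) and read by Glucose-glo luminescence. IC50 came from Hill fits, as geometric mean of ≥2 runs.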

Chain of hGYS2 enzyme (recombinant hGYS2/GN1 protein) (P54840 whole entry): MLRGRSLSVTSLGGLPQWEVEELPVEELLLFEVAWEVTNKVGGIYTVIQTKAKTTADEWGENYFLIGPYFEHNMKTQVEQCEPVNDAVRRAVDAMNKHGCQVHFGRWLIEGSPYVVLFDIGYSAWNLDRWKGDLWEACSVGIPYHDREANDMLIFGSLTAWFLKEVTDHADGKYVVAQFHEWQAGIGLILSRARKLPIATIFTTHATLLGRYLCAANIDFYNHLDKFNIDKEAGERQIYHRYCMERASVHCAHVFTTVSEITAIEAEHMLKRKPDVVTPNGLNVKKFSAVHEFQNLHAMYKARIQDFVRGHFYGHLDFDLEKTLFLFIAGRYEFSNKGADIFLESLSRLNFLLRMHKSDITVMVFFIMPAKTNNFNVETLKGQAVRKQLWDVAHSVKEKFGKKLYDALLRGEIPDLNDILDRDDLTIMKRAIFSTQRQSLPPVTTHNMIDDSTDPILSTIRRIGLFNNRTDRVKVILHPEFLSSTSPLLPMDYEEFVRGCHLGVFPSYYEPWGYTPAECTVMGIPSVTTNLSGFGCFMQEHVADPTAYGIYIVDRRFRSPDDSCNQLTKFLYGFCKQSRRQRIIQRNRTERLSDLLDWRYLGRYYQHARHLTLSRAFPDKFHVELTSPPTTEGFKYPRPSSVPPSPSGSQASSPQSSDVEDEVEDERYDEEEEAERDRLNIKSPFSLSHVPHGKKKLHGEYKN
Chain of hGYS2 enzyme (recombinant hGYS2/GN1 protein) (P46976 whole entry partner): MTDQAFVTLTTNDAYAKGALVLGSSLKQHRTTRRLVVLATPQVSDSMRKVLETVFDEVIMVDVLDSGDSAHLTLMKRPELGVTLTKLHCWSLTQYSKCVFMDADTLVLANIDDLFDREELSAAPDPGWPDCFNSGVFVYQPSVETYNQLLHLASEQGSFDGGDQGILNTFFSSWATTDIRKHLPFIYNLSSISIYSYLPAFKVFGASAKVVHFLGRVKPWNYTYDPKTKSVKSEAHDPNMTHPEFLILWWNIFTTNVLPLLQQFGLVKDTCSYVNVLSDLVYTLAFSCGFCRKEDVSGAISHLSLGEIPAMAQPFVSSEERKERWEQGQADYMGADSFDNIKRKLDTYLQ
Chain of hGYS1 enzyme (recombinant hGYS1/GN1 protein) (P13807 whole entry): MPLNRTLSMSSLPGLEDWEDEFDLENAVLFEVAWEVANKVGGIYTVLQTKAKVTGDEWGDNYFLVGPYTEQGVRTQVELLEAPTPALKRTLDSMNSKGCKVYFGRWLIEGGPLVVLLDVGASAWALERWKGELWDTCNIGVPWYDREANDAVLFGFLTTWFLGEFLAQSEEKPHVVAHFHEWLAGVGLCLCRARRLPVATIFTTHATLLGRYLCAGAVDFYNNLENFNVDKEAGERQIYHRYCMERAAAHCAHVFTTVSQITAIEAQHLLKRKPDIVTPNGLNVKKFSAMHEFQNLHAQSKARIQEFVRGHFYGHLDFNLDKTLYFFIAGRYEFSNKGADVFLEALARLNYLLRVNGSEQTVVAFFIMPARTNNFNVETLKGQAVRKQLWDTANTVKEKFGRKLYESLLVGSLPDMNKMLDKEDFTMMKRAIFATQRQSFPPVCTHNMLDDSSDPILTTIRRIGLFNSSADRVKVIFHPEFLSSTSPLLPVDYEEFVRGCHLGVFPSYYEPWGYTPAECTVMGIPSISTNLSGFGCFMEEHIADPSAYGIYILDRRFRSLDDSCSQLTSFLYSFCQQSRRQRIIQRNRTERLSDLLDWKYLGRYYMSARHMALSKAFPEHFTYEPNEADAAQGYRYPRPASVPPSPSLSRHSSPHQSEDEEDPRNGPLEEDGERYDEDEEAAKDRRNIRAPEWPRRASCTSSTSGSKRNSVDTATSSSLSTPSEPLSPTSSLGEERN
Chain of hGYS1 enzyme (recombinant hGYS1/GN1 protein) (P46976 whole entry partner): as the sequence (P46976 whole entry partner) above

## CC(C)c1c(F)cc([C@@H](NC(=O)[C@@H]2C[C@@H](F)CN2C(=O)Cn2cnnn2)c2ccccc2)cc1F [Compound 669, (2S,4R)-N-[(S)-[3,5-difluoro-4-(propan-2-yl)phenyl](phenyl)methyl]-4-fluoro-1-[2-(1H-1,2,3,4-tetrazol-1-yl)acetyl]pyrrolidine-2-carboxamide]
[1]
  IC50: 0.04 µM
[2]
  IC50: > 100 µM
[3]
  IC50: 0.47 µM

## CCn1cc(CC(=O)N2C[C@H](F)C[C@H]2C(=O)N[C@@H](c2ccccc2)c2ccc(C3CC3)c(F)n2)ccc1=O [Compound 736, (2S,4R)-N-[(S)-(5-cyclopropyl-6-fluoropyridin-2-yl)(phenyl)methyl]-1-[2-(1-ethyl-6-oxo-1,6-dihydropyridin-3-yl)acetyl]-4-fluoropyrrolidine-2-carboxamide]
[1]
  IC50: 0.02 µM
[2]
  IC50: > 100 µM
[3]
  IC50: 0.78 µM

## CC(C)c1ccc([C@@H](NC(=O)[C@@H]2C[C@@H](F)CN2C(=O)Cn2ncc(N(C)C)n2)c2ccccc2)nc1 [Compound 259, (2S,4R)-1-{2-[4-(dimethylamino)-2H-1,2,3-triazol-2-yl]acety}-4-fluoro-N-[(S)-phenyl[5-(propan-2-yl)pyridin-2-yl]methyl]pyrrolidine-2-carboxamide]
[1]
  IC50: 0.015 µM
[2]
  IC50: > 100 µM
[3]
  IC50: 0.28 µM

## Cc1nc2ccccc2n1CC(=O)N1C[C@H](F)C[C@H]1C(=O)N[C@@H](c1ccccc1)c1ccc(C2(C)CC2)c(F)n1 [Compound 593, (2S,4R)-4-fluoro-N-[(S)-[6-fluoro-5-(1-methylcyclopropyl)pyridin-2-yl](phenyl)methyl]-1-[2-(2-methyl-1H-1,3-benzodiazol-1-yl)acetyl]pyrrolidine-2-carboxamide]
[1]
  IC50: 0.019 µM
[2]
  IC50: > 100 µM
[3]
  IC50: 0.28 µM

## CN1C(=O)C(CC(=O)N2C[C@H](F)C[C@H]2C(=O)N[C@@H](c2ccccc2)c2ccc(C3CC3)c(F)c2)c2ccccc21 (stereo partly drawn) [Compound 455, (2S,4R)-N-[(S)-(4-cyclopropyl-3-fluorophenyl)(phenyl)methyl]-4-fluoro-1-[2-(1-methyl-2-oxo-2,3-dihydro-1H-indol-3-yl)acetyl]pyrrolidine-2-carboxamide]
[1]
  IC50: 0.291 µM
[2]
  IC50: > 100 µM
[3]
  IC50: 3.62 µM

## Cn1c(=O)n(CC(=O)N2C[C@H](F)C[C@H]2C(=O)N[C@@H](c2ccccc2)c2ccc(C3(C)CC3)c(F)n2)c2ccccc21 [Compound 600, (2S,4R)-4-fluoro-N-[(S)-[6-fluoro-5-(1-methylcyclopropyl)pyridin-2-yl](phenyl)methyl]-1-[2-(3-methyl-2-oxo-2,3-dihydro-1H-1,3-benzodiazol-1-yl)acetyl]pyrrolidine-2-carboxamide]
[1]
  IC50: 0.036 µM
[2]
  IC50: > 100 µM
[3]
  IC50: 0.62 µM

## CC(C)c1ccc([C@@H](NC(=O)[C@@H]2C[C@@H](F)CN2C(=O)Cn2cnc3ccccc32)c2ccccc2)nc1 [Compound 248, (2S,4R)-1-[2-(1H-1,3-benzodiazol-1-yl)acetyl]-4-fluoro-N-[(S)-phenyl[5-(propan-2-yl)pyridin-2-yl]methy]pyrrolidine-2-carboxamide]
[1]
  IC50: 0.012 µM
[2]
  IC50: > 100 µM
[3]
  IC50: 0.2 µM

## CC(C)c1ccc([C@@H](NC(=O)[C@@H]2C[C@@H](F)CN2C(=O)[C@H](C)NC(=O)N(C)C)c2ccccc2)nc1F [Compound 405, (2S,4R)-1-[(2S)-2-[(dimethylcarbamoyl)amino]propanoyl]-4-fluoro-N-[(S)-[6-fluoro-5-(propan-2-yl)pyridin-2-yl](phenyl)methyl] pyrrolidine-2-carboxamide]
[1]
  IC50: 0.02 µM
[2]
  IC50: > 100 µM
[3]
  IC50: 0.49 µM

## CC(C)c1ccc([C@@H](NC(=O)[C@@H]2C[C@@H](F)CN2C(=O)CNC(N)=O)c2ccccc2)nc1F [Compound 396, (2S,4R)-1-[2-(carbamoylamino)acetyl]-4-fluoro-N-[(S)-[6-fluoro-5-(propan-2-yl)pyridin-2-yl](phenyl)methyl] pyrrolidine-2-carboxamide]
[1]
  IC50: 0.013 µM
[2]
  IC50: > 100 µM
[3]
  IC50: 0.33 µM

## CC(C)c1ccc([C@@H](NC(=O)[C@@H]2C[C@@H](F)[C@H](C)N2C(=O)Cc2cnn[nH]2)c2ccccc2)cc1F [Compound 340, (2S,4R,5S)-4-fluoro-N-[(S)-[3-fluoro-4-(propan-2-yl)phenyl](phenyl)methyl]-5-methyl-1-[2-(1H-1,2,3-triazol-5-yl)acetyl]pyrrolidine-2-carboxamide]
[1]
  IC50: 0.018 µM
[2]
  IC50: > 100 µM
[3]
  IC50: 0.25 µM

## CC1(c2ccc([C@@H](NC(=O)[C@@H]3C[C@@H](F)CN3C(=O)CNC(=O)N3CCOCC3)c3ccccc3)cc2F)CC1 [Compound 565, N-{2-[(2S,4R)-4-fluoro-2-{[(S)-[3-fluoro-4-(1-methylcyclopropyl)phenyl](phenyl)methyl]carbamoyl}pyrrolidin-1-yl]-2-oxoethyl}morpholine-4-carboxamide]
[1]
  IC50: 0.048 µM
[2]
  IC50: > 100 µM
[3]
  IC50: 1.21 µM

## CC(C)c1ccc([C@@H](NC(=O)[C@@H]2C[C@@H](F)CN2C(=O)Cc2n[nH]c(=O)n2C)c2ccccc2)nc1F [Compound 398, (2S,4R)-4-fluoro-N-[(S)-[6-fluoro-5-(propan-2-yl)pyridin-2-yl](phenyl)methyl]-1-[2-(4-methyl-5-oxo-4,5-dihydro-1H-1,2,4-triazol-3-yl)acetyl] pyrrolidine-2-carboxamide]
[1]
  IC50: 0.009 µM
[2]
  IC50: > 100 µM
[3]
  IC50: 0.28 µM

## CCn1ncc(N(C)CC(=O)N2C[C@H](F)C[C@H]2C(=O)N[C@@H](c2ccccc2)c2ccc(C3CC3)c(F)c2)n1 [Compound 474, (2S,4R)-N-[(S)-(4-cyclopropyl-3-fluorophenyl)(phenyl)methyl]-1-{2-[(2-ethyl-2H-1,2,3-triazol-4-yl)(methyl)amino]acetyl}-4-fluoropyrrolidine-2-carboxamide]
[1]
  IC50: 0.043 µM
[2]
  IC50: > 100 µM
[3]
  IC50: 0.88 µM

## CC1(c2ccc([C@@H](NC(=O)[C@@H]3C[C@@H](F)CN3C(=O)Cc3cnn[nH]3)c3ccccc3)cc2F)CCC1 [Compound 681, (2S,4R)-4-fluoro-N-[(S)-[3-fluoro-4-(1-methylcyclobutyl)phenyl](phenyl)methyl]-1-[2-(1H-1,2,3-triazol-5-yl)acetyl]pyrrolidine-2-carboxamide]
[1]
  IC50: 0.03 µM
[2]
  IC50: > 100 µM
[3]
  IC50: 0.43 µM

## Cc1cnc(CC(=O)N2C[C@H](F)C[C@H]2C(=O)N[C@@H](c2ccccc2)c2ccc(C3CC(F)(F)C3)cn2)o1 [Compound 536, (2S,4R)-N-[(S)-[5-(3,3-difluorocyclobutyl)pyridin-2-yl](phenyl)methyl]-4-fluoro-1-[2-(5-methyl-1,3-oxazol-2-yl)acetyl]pyrrolidine-2-carboxamide]
[1]
  IC50: 0.024 µM
[2]
  IC50: > 100 µM
[3]
  IC50: 0.35 µM

## CC(C)c1ccc([C@@H](NC(=O)[C@@H]2C[C@@H](F)CN2C(=O)Cn2ncc(N3CC(F)(F)C3)n2)c2ccccc2)nc1 [Compound 277, (2S,4R)-1-{2-[4-(3,3-difluoroazetidin-1-yl)-2H-1,2,3-triazol-2-yl]acetyl}-4-fluoro-N-[(S)-phenyl[5-(propan-2-yl)pyridin-2-yl]methyl]pyrrolidine-2-carboxamide]
[1]
  IC50: 0.031 µM
[2]
  IC50: > 100 µM
[3]
  IC50: 0.65 µM
